Data: ChEMBL document CHEMBL1201862, “PubChem BioAssay data set” (2004)
Calls of active or inactive are those of the source.

Experiments:
[1] = system: Candida albicans; test: resistant Candida growth with fluconazole co-treatment – CaCi-8 strain, Alamar Blue, dry powder, set 2, dose response (AID 488909); assay type: functional, organism-based
[2] = system: Candida albicans; test: Candida growth inhibition combined with fluconazole – CaCi-2 strain, Alamar Blue, dry powder, set 3, dose response (AID 488907); assay type: functional, organism-based
[3] = target: T1, Short transient receptor potential channel 4 (Mus musculus, UniProt Q9QUQ5); test: potency of mouse TRPC4 calcium flux blockers – cell-based, HEK293 TRPC4/mu-opioid, DAMGO stimulus, Fluo-4, dose response (AID 492994); assay type: functional
T1 sequence (Q9QUQ5 whole entry): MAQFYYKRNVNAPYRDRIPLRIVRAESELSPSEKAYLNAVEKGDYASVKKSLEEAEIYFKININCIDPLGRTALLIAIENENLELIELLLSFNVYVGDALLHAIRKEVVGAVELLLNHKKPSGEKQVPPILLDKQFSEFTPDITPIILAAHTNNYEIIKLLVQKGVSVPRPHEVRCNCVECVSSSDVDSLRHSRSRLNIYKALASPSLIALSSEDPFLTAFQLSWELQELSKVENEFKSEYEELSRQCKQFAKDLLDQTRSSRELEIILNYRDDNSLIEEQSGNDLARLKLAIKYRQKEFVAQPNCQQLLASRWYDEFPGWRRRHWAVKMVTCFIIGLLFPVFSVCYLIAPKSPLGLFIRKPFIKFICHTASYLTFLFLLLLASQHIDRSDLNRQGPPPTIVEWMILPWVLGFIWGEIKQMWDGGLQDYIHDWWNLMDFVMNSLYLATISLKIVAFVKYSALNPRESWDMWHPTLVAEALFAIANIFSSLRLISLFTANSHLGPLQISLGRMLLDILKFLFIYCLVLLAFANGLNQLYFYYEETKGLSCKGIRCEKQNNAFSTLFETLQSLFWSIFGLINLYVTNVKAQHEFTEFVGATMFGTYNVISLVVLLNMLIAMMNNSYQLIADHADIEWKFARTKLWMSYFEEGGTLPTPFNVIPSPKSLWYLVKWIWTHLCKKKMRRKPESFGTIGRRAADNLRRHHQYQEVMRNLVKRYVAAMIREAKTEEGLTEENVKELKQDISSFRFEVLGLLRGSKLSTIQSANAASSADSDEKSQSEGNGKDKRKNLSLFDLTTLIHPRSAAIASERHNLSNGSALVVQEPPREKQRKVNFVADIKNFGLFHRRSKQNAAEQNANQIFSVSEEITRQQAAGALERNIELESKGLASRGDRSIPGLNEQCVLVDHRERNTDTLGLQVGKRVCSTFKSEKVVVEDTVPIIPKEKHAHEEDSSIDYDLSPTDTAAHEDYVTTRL

[4] = target: T1, Short transient receptor potential channel 4; test: SAR Analysis for the identification of selective inhibits of the transient receptor potential cation channel C4 (TRPC4): Automated Electrophysiology_2. [Related pubchem assays (depositor defined):AID2256]; assay type: functional
[5] = target: T2, Nuclear receptor subfamily 0 group B member 1 (Homo sapiens, UniProt P51843); test: Luminescence-based cell-based high throughput dose response assay for inhibitors of the orphan nuclear receptor subfamily 0, group B, member 1 (DAX1; NR0B1). [Related pubchem assays (depositor defined):AID504766, AID504790]; assay type: functional
T2 sequence (P51843 whole entry): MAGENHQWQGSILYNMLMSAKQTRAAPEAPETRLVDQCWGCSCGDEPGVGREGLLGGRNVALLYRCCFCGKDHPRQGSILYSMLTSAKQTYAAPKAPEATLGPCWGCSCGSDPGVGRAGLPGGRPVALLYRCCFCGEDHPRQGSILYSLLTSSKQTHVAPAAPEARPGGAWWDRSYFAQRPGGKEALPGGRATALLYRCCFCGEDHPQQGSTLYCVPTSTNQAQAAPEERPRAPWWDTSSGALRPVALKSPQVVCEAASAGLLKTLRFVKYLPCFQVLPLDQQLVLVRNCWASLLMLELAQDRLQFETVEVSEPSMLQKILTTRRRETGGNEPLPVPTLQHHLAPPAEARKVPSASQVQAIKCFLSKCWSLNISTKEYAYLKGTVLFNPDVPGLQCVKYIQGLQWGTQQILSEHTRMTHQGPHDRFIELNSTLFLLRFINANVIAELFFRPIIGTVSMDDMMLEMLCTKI

[6] = system: HEK293; test: cells; assay type: functional, cell-based; conditions: Homo sapiens

## CC(C)C(=O)N1CCN(c2ccnc3cc(Cl)ccc23)CC1
[1]
  AC50: < 0.195 µM (active)
[2]
  AC50: 3.03 µM (active)

## Cc1cc(N2CC(C)CC(C)C2)nc2ccccc12 (stereo unspecified)
[3]
  IC50: 12.6 µM (active)
[4]
  IC50: 11.9 µM (active)

## Cc1cc(OCC(=O)N2CCC(C(N)=O)CC2)c2c(C)cc(=O)oc2c1
[5]
  IC50: > 67.6 µM (inactive)
[6]
  IC50: > 67.6 µM (inactive)
